Test results: patent US8012967B2, “Minor groove binders” (University of Strathclyde, priority 2006, dated 2011)
Read-outs that look alike come from different tables or passages of the source.

How the values were obtained:
S. aureus LS-1 = test: S. aureus infection model in mice, minimal effective dose; format: in vivo; parameters: Development of swollen joints following infection: unit not given here; settings: for Development of swollen joints following infection: mice
Protocol: In relation to the methods described in J. Med. Microbiol. 46, 208-213 (1997), compounds may be evaluated in vivo using a model S. Aureus strain LS-1 which, when injected intravenously into mice, consistently causes transient bacteraemia followed by joint localization in 3-4 days. Normal control mice show inflammation of 50-60% of their joints within 3-4 days. The severity of joint sepsis was measured using calipers to determine the diameter of the affected joints. In general, five groups of mice normally having a mean weight of between 18-28 g (5 mice per group) are used for each compound tested, wherein each group is infected with S. Aureus and then provided with a certain dose of the compound to be tested (with one group acting a control).
Determination of minimal effective dose of title compound of Example 2 in S. aureus infection model.
Mice were infected with S. aureus LS-1 (50 million cfu by iv injection) and treated with graded doses of the compound of Example 2 (iv injection within 30 minutes). Each group contained 5 mice and comprised the following.
Group 1: S. aureus LS-1 only
Group 2: S. aureus LS-1 plus 60 mg/kg of the compound of Example 2
Group 3: S. aureus LS-1 plus 40 mg/kg of the compound of Example 2
Group 4: S. aureus LS-1 plus 20 mg/kg of the compound of Example 2
Group 5: S. aureus LS-1 plus 10 mg/kg of the compound of Example 2
Mice were assessed daily for weight loss, development of swollen joints and morbidity/mortality.

[1] = test system: Streptococcus faecalis (NCTC 775); test: MIC, Streptococcus faecalis; format: cell-based; settings: Enterococcus faecalis, NCTC775, read-out: Minimum inhibitory concentrations (MICs), St. faecalis
Method in brief: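 Broth microdilution with doubling dilutions of compound in Mueller-Hinton Broth, incubated at 37° C. MIC read from the colour pattern in the wells. Sterility and growth controls included.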

Cn1cc(NC(=O)c2cc(NC(=O)c3ccc(/C=C/c4cnc5ccccc5c4)cc3)cn2C)cc1C(=O)NCCN1CCOCC1 [Example 2, 1-Methyl-4-({[1-methyl-4-({4-[(E)-2-(3-quinolinyl)ethenyl]benzoyl}amino)-1H-pyrrol-2-yl]carbonyl}amino)-N-[2-(4-morpholinyl)ethyl]-1H-pyrrole-2-carboxamide]
Weight loss of mice after infection: Mean mouse weight (g) after (S. aureus LS-1; Group 2, 60 mg/kg iv, Day 2): 27.1 g | Weight loss of mice after infection: Mean mouse weight (g) after (S. aureus LS-1; Group 2, 60 mg/kg iv, Day 5): 26.3 g | Weight loss of mice after infection: Mean mouse weight (g) after (S. aureus LS-1; Group 2, 60 mg/kg iv, Day 7): 26.1 g | Mortality rate of mice following infection (S. aureus LS-1; Group 2, 60 mg/kg iv, day 2 post infection): 0/5 | Mortality rate of mice following infection (S. aureus LS-1; Group 2, 60 mg/kg iv, day 3 post infection): 0/5 | Mortality rate of mice following infection (S. aureus LS-1; Group 2, 60 mg/kg iv, day 4 post infection): 1/5 | Mortality rate of mice following infection (S. aureus LS-1; Group 2, 60 mg/kg iv, day 5 post infection): 1/5 | Mortality rate of mice following infection (S. aureus LS-1; Group 2, 60 mg/kg iv, day 6 post infection): 1/5 | Mortality rate of mice following infection (S. aureus LS-1; Group 2, 60 mg/kg iv, day 7 post infection): 1/5 | Weight loss of mice after infection: Mean mouse weight (g) after (S. aureus LS-1; Group 3, 40 mg/kg iv, Day 2): 27.0 g | Weight loss of mice after infection: Mean mouse weight (g) after (S. aureus LS-1; Group 3, 40 mg/kg iv, Day 5): 26.4 g | Weight loss of mice after infection: Mean mouse weight (g) after (S. aureus LS-1; Group 3, 40 mg/kg iv, Day 7): 26.0 g | Mortality rate of mice following infection (S. aureus LS-1; Group 3, 40 mg/kg iv, day 2 post infection): 0/5 | Mortality rate of mice following infection (S. aureus LS-1; Group 3, 40 mg/kg iv, day 3 post infection): 0/5 | Mortality rate of mice following infection (S. aureus LS-1; Group 3, 40 mg/kg iv, day 4 post infection): 0/5 | Mortality rate of mice following infection (S. aureus LS-1; Group 3, 40 mg/kg iv, day 5 post infection): 0/5 | Mortality rate of mice following infection (S. aureus LS-1; Group 3, 40 mg/kg iv, day 6 post infection): 0/5 | Mortality rate of mice following infection (S. aureus LS-1; Group 3, 40 mg/kg iv, day 7 post infection): 0/5 | Weight loss of mice after infection: Mean mouse weight (g) after (S. aureus LS-1; Group 4, 20 mg/kg iv, Day 2): 27.6 g | Weight loss of mice after infection: Mean mouse weight (g) after (S. aureus LS-1; Group 4, 20 mg/kg iv, Day 5): 25.4 g | Weight loss of mice after infection: Mean mouse weight (g) after (S. aureus LS-1; Group 4, 20 mg/kg iv, Day 7): 25.1 g | Mortality rate of mice following infection (S. aureus LS-1; Group 4, 20 mg/kg iv, day 2 post infection): 0/5 | Mortality rate of mice following infection (S. aureus LS-1; Group 4, 20 mg/kg iv, day 3 post infection): 0/5 | Mortality rate of mice following infection (S. aureus LS-1; Group 4, 20 mg/kg iv, day 4 post infection): 0/5 | Mortality rate of mice following infection (S. aureus LS-1; Group 4, 20 mg/kg iv, day 5 post infection): 1/5 | Mortality rate of mice following infection (S. aureus LS-1; Group 4, 20 mg/kg iv, day 6 post infection): 2/5 | Mortality rate of mice following infection (S. aureus LS-1; Group 4, 20 mg/kg iv, day 7 post infection): 3/5 | Weight loss of mice after infection: Mean mouse weight (g) after (S. aureus LS-1; Group 5, 10 mg/kg iv, Day 2): 26.9 g | Weight loss of mice after infection: Mean mouse weight (g) after (S. aureus LS-1; Group 5, 10 mg/kg iv, Day 5): 23.0 g | Weight loss of mice after infection: Mean mouse weight (g) after (S. aureus LS-1; Group 5, 10 mg/kg iv, Day 7): 22.6 g | Mortality rate of mice following infection (S. aureus LS-1; Group 5, 10 mg/kg iv, day 2 post infection): 0/5 | Mortality rate of mice following infection (S. aureus LS-1; Group 5, 10 mg/kg iv, day 3 post infection): 0/5 | Mortality rate of mice following infection (S. aureus LS-1; Group 5, 10 mg/kg iv, day 4 post infection): 0/5 | Mortality rate of mice following infection (S. aureus LS-1; Group 5, 10 mg/kg iv, day 5 post infection): 0/5 | Mortality rate of mice following infection (S. aureus LS-1; Group 5, 10 mg/kg iv, day 6 post infection): 1/5 | Mortality rate of mice following infection (S. aureus LS-1; Group 5, 10 mg/kg iv, day 7 post infection): 2/5 | Development of swollen joints following infection (S. aureus LS-1; count n/N, Group 2, 60 mg/kg iv, day 2 post infection): 0/20 | Development of swollen joints following infection (S. aureus LS-1; count n/N, Group 2, 60 mg/kg iv, day 3 post infection): 0/20 | Development of swollen joints following infection (S. aureus LS-1; count n/N, Group 2, 60 mg/kg iv, day 4 post infection): 0/16 | Development of swollen joints following infection (S. aureus LS-1; count n/N, Group 2, 60 mg/kg iv, day 5 post infection): 0/16 | Development of swollen joints following infection (S. aureus LS-1; count n/N, Group 2, 60 mg/kg iv, day 6 post infection): 0/16 | Development of swollen joints following infection (S. aureus LS-1; count n/N, Group 2, 60 mg/kg iv, day 7 post infection): 0/16 | Development of swollen joints following infection (S. aureus LS-1; count n/N, Group 3, 40 mg/kg iv, day 2 post infection): 0/20 | Development of swollen joints following infection (S. aureus LS-1; count n/N, Group 3, 40 mg/kg iv, day 3 post infection): 0/20 | Development of swollen joints following infection (S. aureus LS-1; count n/N, Group 3, 40 mg/kg iv, day 4 post infection): 2/20 | Development of swollen joints following infection (S. aureus LS-1; count n/N, Group 3, 40 mg/kg iv, day 5 post infection): 3/20 | Development of swollen joints following infection (S. aureus LS-1; count n/N, Group 3, 40 mg/kg iv, day 6 post infection): 3/20 | Development of swollen joints following infection (S. aureus LS-1; count n/N, Group 3, 40 mg/kg iv, day 7 post infection): 3/20 | Development of swollen joints following infection (S. aureus LS-1; count n/N, Group 4, 20 mg/kg iv, day 2 post infection): 1/20 | Development of swollen joints following infection (S. aureus LS-1; count n/N, Group 4, 20 mg/kg iv, day 3 post infection): 1/20 | Development of swollen joints following infection (S. aureus LS-1; count n/N, Group 4, 20 mg/kg iv, day 4 post infection): 2/20 | Development of swollen joints following infection (S. aureus LS-1; count n/N, Group 4, 20 mg/kg iv, day 5 post infection): 1/16 | Development of swollen joints following infection (S. aureus LS-1; count n/N, Group 4, 20 mg/kg iv, day 6 post infection): 6/20 | Development of swollen joints following infection (S. aureus LS-1; count n/N, Group 4, 20 mg/kg iv, day 7 post infection): 4/12 | Development of swollen joints following infection (S. aureus LS-1; count n/N, Group 5, 10 mg/kg iv, day 2 post infection): 1/20 | Development of swollen joints following infection (S. aureus LS-1; count n/N, Group 5, 10 mg/kg iv, day 3 post infection): 1/20 | Development of swollen joints following infection (S. aureus LS-1; count n/N, Group 5, 10 mg/kg iv, day 4 post infection): 2/20 | Development of swollen joints following infection (S. aureus LS-1; count n/N, Group 5, 10 mg/kg iv, day 5 post infection): 2/20 | Development of swollen joints following infection (S. aureus LS-1; count n/N, Group 5, 10 mg/kg iv, day 6 post infection): 5/16 | Development of swollen joints following infection (S. aureus LS-1; count n/N, Group 5, 10 mg/kg iv, day 7 post infection): 4/12 | Development of swollen joints following infection (S. aureus LS-1; figure in parentheses, Group 2, 60 mg/kg iv, day 2 post infection): 0 | Development of swollen joints following infection (S. aureus LS-1; figure in parentheses, Group 2, 60 mg/kg iv, day 3 post infection): 0 | Development of swollen joints following infection (S. aureus LS-1; figure in parentheses, Group 2, 60 mg/kg iv, day 4 post infection): 0 | Development of swollen joints following infection (S. aureus LS-1; figure in parentheses, Group 2, 60 mg/kg iv, day 5 post infection): 0 | Development of swollen joints following infection (S. aureus LS-1; figure in parentheses, Group 2, 60 mg/kg iv, day 6 post infection): 0 | Development of swollen joints following infection (S. aureus LS-1; figure in parentheses, Group 2, 60 mg/kg iv, day 7 post infection): 0 | Development of swollen joints following infection (S. aureus LS-1; figure in parentheses, Group 3, 40 mg/kg iv, day 2 post infection): 0 | Development of swollen joints following infection (S. aureus LS-1; figure in parentheses, Group 3, 40 mg/kg iv, day 3 post infection): 0 | Development of swollen joints following infection (S. aureus LS-1; figure in parentheses, Group 3, 40 mg/kg iv, day 4 post infection): 10 | Development of swollen joints following infection (S. aureus LS-1; figure in parentheses, Group 3, 40 mg/kg iv, day 5 post infection): 15 | Development of swollen joints following infection (S. aureus LS-1; figure in parentheses, Group 3, 40 mg/kg iv, day 6 post infection): 15 | Development of swollen joints following infection (S. aureus LS-1; figure in parentheses, Group 3, 40 mg/kg iv, day 7 post infection): 15 | Development of swollen joints following infection (S. aureus LS-1; figure in parentheses, Group 4, 20 mg/kg iv, day 2 post infection): 5 | Development of swollen joints following infection (S. aureus LS-1; figure in parentheses, Group 4, 20 mg/kg iv, day 3 post infection): 5 | Development of swollen joints following infection (S. aureus LS-1; figure in parentheses, Group 4, 20 mg/kg iv, day 4 post infection): 10 | Development of swollen joints following infection (S. aureus LS-1; figure in parentheses, Group 4, 20 mg/kg iv, day 5 post infection): 6.3 | Development of swollen joints following infection (S. aureus LS-1; figure in parentheses, Group 4, 20 mg/kg iv, day 6 post infection): 30 | Development of swollen joints following infection (S. aureus LS-1; figure in parentheses, Group 4, 20 mg/kg iv, day 7 post infection): 33 | Development of swollen joints following infection (S. aureus LS-1; figure in parentheses, Group 5, 10 mg/kg iv, day 2 post infection): 5 | Development of swollen joints following infection (S. aureus LS-1; figure in parentheses, Group 5, 10 mg/kg iv, day 3 post infection): 5 | Development of swollen joints following infection (S. aureus LS-1; figure in parentheses, Group 5, 10 mg/kg iv, day 4 post infection): 10 | Development of swollen joints following infection (S. aureus LS-1; figure in parentheses, Group 5, 10 mg/kg iv, day 5 post infection): 10 | Development of swollen joints following infection (S. aureus LS-1; figure in parentheses, Group 5, 10 mg/kg iv, day 6 post infection): 31 | Development of swollen joints following infection (S. aureus LS-1; figure in parentheses, Group 5, 10 mg/kg iv, day 7 post infection): 33 | MIC ([1]; value in parentheses, na = not active): 25 µg/mL | MIC ([1]; value outside parentheses): 33.5 µM
